According to patent publication US12102648B2, “Orally-bioavailable nucleoside analogs” (priority 2021, dated 2024):

Experiment: in vitro
Type: in vitro ADME
Details: human, Caco-2
Outline: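 Permeability measured in both directions across 19-day Caco-2 layers with TEER above 600 […], incubated at 37° C without shaking; donor and receiver sampled at 10 and 90 min for LC/MS/MS. Derived values: Papp (cm/s), efflux ratio, recovery.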
With `CCCC(=O)Nc1ncnn2c([C@]3(C#N)O[C@H](COC(=O)[C@@H](N)C(C)C)[C@@H](OC(=O)CC)[C@H]3O)ccc12` [Compound 357, ((2R,3S,4R,5R)-5-(4-butyramidopyrrolo[2,1-f][1,2,4]triazin-7-yl)-5-cyano-4-hydroxy-3-(propionyloxy)tetrahydrofuran-2-yl)methyl L-valinate] the Papp A→B at 90 min was 3.1 ×10⁻⁶ cm/s, the Papp B→A at 90 min was 6 ×10⁻⁶ cm/s and the efflux ratio at 90 min was 1.9. Work on `CC(=O)OCOC(=O)Nc1ncnn2c([C@]3(C#N)O[C@H](COC(=O)CC4CCCCC4)[C@@H](OC(=O)[C@@H](N)C(C)C)[C@H]3O)ccc12` [Compound 358, (2R,3S,4R,5R)-5-(4-(((acetoxymethoxy)carbonyl)amino)pyrrolo[2,1-f][1,2,4]triazin-7-yl)-5-cyano-2-((2-cyclohexylacetoxy)methyl)-4-hydroxytetrahydrofuran-3-yl L-valinate] yielded a Papp A→B at 90 min of 0.3 ×10⁻⁶ cm/s, a Papp B→A at 90 min of 0.1 ×10⁻⁶ cm/s and an efflux ratio at 90 min of 0.33. `CC(C)[C@H](N)C(=O)O[C@H]1[C@@H](O)[C@](C#N)(c2ccc3c(NC(=O)OCOC(=O)C(C)(C)C)ncnn23)O[C@@H]1COC(=O)CC1CCCCC1` [Compound 361, (2R,3S,4R,5R)-5-cyano-2-((2-cyclohexylacetoxy)methyl)-4-hydroxy-5-(4-((((pivaloyloxy)methoxy)carbonyl)amino)pyrrolo[2,1-f][1,2,4]triazin-7-yl)tetrahydrofuran-3-yl L-valinate] showed a Papp A→B at 90 min of 0.15 ×10⁻⁶ cm/s, a Papp B→A at 90 min of 0.05 ×10⁻⁶ cm/s and an efflux ratio at 90 min of 0.33. `CCC(=O)O[C@H]1[C@@H](O)[C@](C#N)(c2ccc3c(NC(=O)C(C)C)ncnn23)O[C@@H]1COC(=O)[C@@H](N)C(C)C` [Compound 362, ((2R,3S,4R,5R)-5-cyano-4-hydroxy-5-(4-isobutyramidopyrrolo[2,1-f][1,2,4]triazin-7-yl)-3-(propionyloxy)tetrahydrofuran-2-yl)methyl L-valinate] showed a Papp A→B at 90 min of 4.6 ×10⁻⁶ cm/s, a Papp B→A at 90 min of 6.7 ×10⁻⁶ cm/s and an efflux ratio at 90 min of 1.5. With `CC(=O)OCOC(=O)Nc1ncnn2c([C@]3(C#N)O[C@H](COC(=O)CC4(N)CCCCC4)[C@@H](O)[C@H]3O)ccc12` [Compound 363, ((2R,3S,4R,5R)-5-(4-(((acetoxymethoxy)carbonyl)amino)pyrrolo[2,1-f][1,2,4]triazin-7-yl)-5-cyano-3,4-dihydroxytetrahydrofuran-2-yl)methyl 2-(1-aminocyclohexyl)acetate] the Papp A→B at 90 min was 0.07 ×10⁻⁶ cm/s, the Papp B→A at 90 min was 0.02 ×10⁻⁶ cm/s and the efflux ratio at 90 min was 0.33. Compound `CCC(=O)O[C@H]1[C@@H](O)[C@](C#N)(c2ccc3c(NC(=O)OCOC(C)=O)ncnn23)O[C@@H]1COC(=O)[C@@H](N)C(C)C` [Compound 364, ((2R,3S,4R,5R)-5-(4-(((acetoxymethoxy)carbonyl)amino)pyrrolo[2,1-f][1,2,4]triazin-7-yl)-5-cyano-4-hydroxy-3-(propionyloxy)tetrahydrofuran-2-yl)methyl L-valinate] has a Papp A→B at 90 min of 1.8 ×10⁻⁶ cm/s, a Papp B→A at 90 min of 2 ×10⁻⁶ cm/s and an efflux ratio at 90 min of 1.1. Work on `CCC(=O)O[C@H]1[C@@H](O)[C@](C#N)(c2ccc3c(NC(=O)OCOC(=O)C(C)(C)C)ncnn23)O[C@@H]1COC(=O)[C@@H](N)C(C)C` [Compound 365, ((2R,3S,4R,5R)-5-cyano-4-hydroxy-5-(4-((((pivaloyloxy)methoxy)carbonyl)amino)pyrrolo[2,1-f][1,2,4]triazin-7-yl)-3-(propionyloxy)tetrahydrofuran-2-yl)methyl L-valinate] yielded a Papp A→B at 90 min of 1.5 ×10⁻⁶ cm/s, a Papp B→A at 90 min of 4.1 ×10⁻⁶ cm/s and an efflux ratio at 90 min of 2.8. Work on `CC(=O)OCOC(=O)OC[C@H]1O[C@@](C#N)(c2ccc3c(NC(=O)[C@@H](N)Cc4ccc(F)cc4)ncnn23)[C@H](O)[C@@H]1O` [Compound 366, (((((2R,3S,4R,5R)-5-(4-((S)-2-amino-3-(4-fluorophenyl)propanamido)pyrrolo[2,1-f][1,2,4]triazin-7-yl)-5-cyano-3,4-dihydroxytetrahydrofuran-2-yl)methoxy)carbonyl)oxy)methyl acetate] yielded a Papp A→B at 90 min of 2.7 ×10⁻⁶ cm/s, a Papp B→A at 90 min of 1.1 ×10⁻⁶ cm/s and an efflux ratio at 90 min of 0.39. Compound `CC(C)(C)C(=O)OCOC(=O)Nc1ncnn2c([C@]3(C#N)O[C@H](COC(=O)CC4(N)CCCCC4)[C@@H](O)[C@H]3O)ccc12` [Compound 367, (((7-((2R,3R,4S,5R)-5-((2-(1-aminocyclohexyl)acetoxy)methyl)-2-cyano-3,4-dihydroxytetrahydrofuran-2-yl)pyrrolo[2,1-f][1,2,4]triazin-4-yl)carbamoyl)oxy)methyl pivalate] has a Papp A→B at 90 min of 2.8 ×10⁻⁶ cm/s, a Papp B→A at 90 min of 1.6 ×10⁻⁶ cm/s and an efflux ratio at 90 min of 0.57. For `N#C[C@@]1(c2ccc3c(N)ncnn23)O[C@H](COC(=O)CC2(N)CCCCC2)[C@@H](OC(=O)CC2CCCCC2)[C@H]1O` [Compound 368, (2R,3S,4R,5R)-2-((2-(1-aminocyclohexyl)acetoxy)methyl)-5-(4-aminopyrrolo[2,1-f][1,2,4]triazin-7-yl)-5-cyano-4-hydroxytetrahydrofuran-3-yl 2-cyclohexylacetate], the Papp A→B at 90 min was 1.4 ×10⁻⁶ cm/s, the Papp B→A at 90 min was 18 ×10⁻⁶ cm/s and the efflux ratio at 90 min was 13. Compound `CC(C)(C)C(=O)OCOC(=O)Nc1ncnn2c([C@]3(C#N)O[C@H](CO)[C@@H](OC(=O)CC4CCCCC4)[C@H]3O)ccc12` [Compound 370, (((7-((2R,3R,4S,5R)-2-cyano-4-(2-cyclohexylacetoxy)-3-hydroxy-5-(hydroxymethyl)tetrahydrofuran-2-yl)pyrrolo[2,1-f][1,2,4]triazin-4-yl)carbamoyl)oxy)methyl pivalate] has a Papp A→B at 90 min of 0.3 ×10⁻⁶ cm/s, a Papp B→A at 90 min of 0.23 ×10⁻⁶ cm/s and an efflux ratio at 90 min of 0.77. For `CC(C)(C)[C@H](N)C(=O)OC[C@H]1O[C@@](C#N)(c2ccc3c(N)ncnn23)[C@H](O)[C@@H]1OC(=O)CC1CCCCC1` [Compound 371, ((2R,3S,4R,5R)-5-(4-aminopyrrolo[2,1-f][1,2,4]triazin-7-yl)-5-cyano-3-(2-cyclohexylacetoxy)-4-hydroxytetrahydrofuran-2-yl)methyl (S)-2-amino-3,3-dimethylbutanoate], the Papp A→B at 90 min was 15 ×10⁻⁶ cm/s, the Papp B→A at 90 min was 21 ×10⁻⁶ cm/s and the efflux ratio at 90 min was 1.3. For `N#C[C@@]1(c2ccc3c(N)ncnn23)O[C@H](COC(=O)[C@@H](N)Cc2ccccc2)[C@@H](OC(=O)CC2CCCCC2)[C@H]1O` [Compound 372, ((2R,3S,4R,5R)-5-(4-aminopyrrolo[2,1-f][1,2,4]triazin-7-yl)-5-cyano-3-(2-cyclohexylacetoxy)-4-hydroxytetrahydrofuran-2-yl)methyl L-phenylalaninate], the Papp A→B at 90 min was 0.73 ×10⁻⁶ cm/s, the Papp B→A at 90 min was 0.83 ×10⁻⁶ cm/s and the efflux ratio at 90 min was 1.1. With `CC(=O)Nc1ncnn2c([C@]3(C#N)O[C@H](COC(=O)[C@@H](N)C(C)(C)C)[C@@H](OC(=O)CC4CCCCC4)[C@H]3O)ccc12` [Compound 373, ((2R,3S,4R,5R)-5-(4-acetamidopyrrolo[2,1-f][1,2,4]triazin-7-yl)-5-cyano-3-(2-cyclohexylacetoxy)-4-hydroxytetrahydrofuran-2-yl)methyl (S)-2-amino-3,3-dimethylbutanoate] the Papp A→B at 90 min was 24 ×10⁻⁶ cm/s, the Papp B→A at 90 min was 29 ×10⁻⁶ cm/s and the efflux ratio at 90 min was 1.2. In the case of `CC(C)(C)C(=O)OCOC(=O)Nc1ncnn2c([C@]3(C#N)O[C@H](COC(=O)[C@@H](N)Cc4ccccc4)[C@@H](OC(=O)CC4CCCCC4)[C@H]3O)ccc12` [Compound 374, (((7-((2R,3R,4S,5R)-5-(((L-phenylalanyl)oxy)methyl)-2-cyano-4-(2-cyclohexylacetoxy)-3-hydroxytetrahydrofuran-2-yl)pyrrolo[2,1-f][1,2,4]triazin-4-yl)carbamoyl)oxy)methyl pivalate], the Papp A→B at 90 min is reported as 0.004 ×10⁻⁶ cm/s, the Papp B→A at 90 min is reported as 0.08 ×10⁻⁶ cm/s and the efflux ratio at 90 min is reported as 19. `CC(C)(C)C(=O)OCOC(=O)Nc1ncnn2c([C@]3(C#N)O[C@H](COC(=O)C(C)(C)C4CCCCC4)[C@@H](O)[C@H]3O)ccc12` [Compound 375, ((2R,3S,4R,5R)-5-cyano-3,4-dihydroxy-5-(4-((((pivaloyloxy)methoxy)carbonyl)amino)pyrrolo[2,1-f][1,2,4]triazin-7-yl)tetrahydrofuran-2-yl)methyl 2-cyclohexyl-2-methylpropanoate] showed a Papp A→B at 90 min of 0.02 ×10⁻⁶ cm/s, a Papp B→A at 90 min of 0.02 ×10⁻⁶ cm/s and an efflux ratio at 90 min of 1.1. Work on `CCCCOC(=O)Nc1ncnn2c([C@]3(C#N)O[C@H](COC(=O)C(C)(C)C4CCCCC4)[C@@H](O)[C@H]3O)ccc12` [Compound 379, ((2R,3S,4R,5R)-5-(4-((butoxycarbonyl)amino)pyrrolo[2,1-f][1,2,4]triazin-7-yl)-5-cyano-3,4-dihydroxytetrahydrofuran-2-yl)methyl 2-cyclohexyl-2-methylpropanoate] yielded a Papp A→B at 90 min of 1.6 ×10⁻⁶ cm/s, a Papp B→A at 90 min of 2.5 ×10⁻⁶ cm/s and an efflux ratio at 90 min of 1.6.

Same assay, conditions: human; Caco-2 monolayer, apical to basolateral, 90-minute incubation; read-out: Papp, A-B
With `CC(C)[C@H](N)C(=O)O[C@H]1[C@@H](O)[C@](C#N)(c2ccc3c(NC(=O)OCOC(=O)C(C)(C)C)ncnn23)O[C@@H]1COC(=O)Cc1ccccc1` [Compound 360, (2R,3S,4R,5R)-5-cyano-4-hydroxy-2-((2-phenylacetoxy)methyl)-5-(4-((((pivaloyloxy)methoxy)carbonyl)amino)pyrrolo[2,1-f][1,2,4]triazin-7-yl)tetrahydrofuran-3-yl L-valinate] the Papp A→B at 90 min was 0.49 ×10⁻⁶ cm/s. Compound `Cc1oc(=O)oc1COC(=O)Nc1ncnn2c([C@]3(C#N)O[C@H](COC(=O)Cc4ccccc4)[C@@H](OC(=O)[C@@H](N)C(C)C)[C@H]3O)ccc12` [Compound 383, (2R,3S,4R,5R)-5-cyano-4-hydroxy-5-(4-((((5-methyl-2-oxo-1,3-dioxol-4-yl)methoxy)carbonyl)amino)pyrrolo[2,1-f][1,2,4]triazin-7-yl)-2-((2-phenylacetoxy)methyl)tetrahydrofuran-3-yl L-valinate] has a Papp A→B at 90 min of less than 1 ×10⁻⁶ cm/s.

Same assay, conditions: human; Caco-2 monolayer, basolateral to apical, 90-minute incubation; read-out: Papp, B-A
With `CC(C)[C@H](N)C(=O)O[C@H]1[C@@H](O)[C@](C#N)(c2ccc3c(NC(=O)OCOC(=O)C(C)(C)C)ncnn23)O[C@@H]1COC(=O)Cc1ccccc1` [Compound 360, (2R,3S,4R,5R)-5-cyano-4-hydroxy-2-((2-phenylacetoxy)methyl)-5-(4-((((pivaloyloxy)methoxy)carbonyl)amino)pyrrolo[2,1-f][1,2,4]triazin-7-yl)tetrahydrofuran-3-yl L-valinate] the Papp B→A at 90 min was 0.16 ×10⁻⁶ cm/s. `Cc1oc(=O)oc1COC(=O)Nc1ncnn2c([C@]3(C#N)O[C@H](COC(=O)Cc4ccccc4)[C@@H](OC(=O)[C@@H](N)C(C)C)[C@H]3O)ccc12` [Compound 383, (2R,3S,4R,5R)-5-cyano-4-hydroxy-5-(4-((((5-methyl-2-oxo-1,3-dioxol-4-yl)methoxy)carbonyl)amino)pyrrolo[2,1-f][1,2,4]triazin-7-yl)-2-((2-phenylacetoxy)methyl)tetrahydrofuran-3-yl L-valinate] gave a Papp B→A at 90 min of less than 1 ×10⁻⁶ cm/s.

Same assay, conditions: human; Caco-2 monolayer; ER>2 indicates potential efflux transporter substrate; read-out: ER (efflux ratio)
`CC(C)[C@H](N)C(=O)O[C@H]1[C@@H](O)[C@](C#N)(c2ccc3c(NC(=O)OCOC(=O)C(C)(C)C)ncnn23)O[C@@H]1COC(=O)Cc1ccccc1` [Compound 360, (2R,3S,4R,5R)-5-cyano-4-hydroxy-2-((2-phenylacetoxy)methyl)-5-(4-((((pivaloyloxy)methoxy)carbonyl)amino)pyrrolo[2,1-f][1,2,4]triazin-7-yl)tetrahydrofuran-3-yl L-valinate] gave an efflux ratio at 90 min of 0.33.
